In patent US9737596B2, “Vaccine for the prevention of breast cancer recurrence” (The Henry M. Jackson Foundation for the Advancement of …, priority 2008, dated 2017):

What was measured:
HLA-A2 molecule = details: cited from earlier work
[1] = tested on: disease-free, high risk breast cancer patients; experiment: Phase II trial: breast cancer recurrence; assay type: in vivo, human; details: median follow up of 17.9 months, preliminary data
Experimental: (§1) Disease-free, high risk breast cancer patients who have completed standard adjuvant therapy were enrolled at multiple sites and randomized to receive six monthly inoculations of either 500 mcg of GP2 with 125 mcg of GM-CSF (Peptide group; PG) or 125 mcg of GM-CSF alone (adjuvant group; AG). Toxicity was assessed after each inoculation. Immunologic response was monitored by measured delayed type hypersensitivity reactions (DTH) and an HLA-A2:Immunoglobulin dimer assay to detect GP2-specific CD8^+ T-lymphocytes. Patients were monitored clinically, radiographically, and pathologically for recurrence.

[2] = tested on: GP2-specific CD8+ T-lymphocytes; experiment: Phase II trial: HLA-A2:Immunoglobulin dimer assay, GP2-specific CD8+ T-lymphocytes; assay type: in vivo, human
Experimental: as §1

[3] = tested on: disease-free, high risk breast cancer patients; experiment: Phase II trial: toxicity; assay type: in vivo, human; details: six monthly inoculations
Experimental: as §1

[4] = tested on: disease-free, high risk breast cancer patients; experiment: Phase II trial: DTH reaction to GP2; assay type: in vivo, human
Experimental: as §1

Substance	binding affinity for the HLA-A2 molecule (HLA-A2 molecule)	recurrence rate [1]	% GP2-specific CD8+ lymphocytes ([2]; 6 months after completion of the primary series)	% GP2-specific CD8+ lymphocytes ([2]; baseline)	grade 3-5 systemic toxicities [3]	grade 4-5 local toxicities [3]	patients with significant immunity (SI) by DTH (reaction larger than 1 cm) ([4]; post-vaccination)	Median DTH reaction to GP2 ([4]; post-vaccination (after completion of primary series))	Median DTH reaction to GP2 ([4]; pre-vaccination)
IISAVVGIL (listed as Homo sapiens) [GP2, nine amino acid peptide from the transmembrane portion of HER2/neu, amino acids 654-662]	relatively poor binding affinity								
GM-CSF: granulocyte macrophage-colony stimulating factor, 125 mcg alone, control adjuvant group of phase II trial		13%	1.41±0.49%	1.08±0.16%	no grade 3-5 systemic toxicities	no grade 4-5 local toxicities	45.5%	0.5±3.3 cm	0.0±1.0 cm
